Experiment [1] has as its system HDAC6. To be noted: cited from earlier work.
Experiment [2] deals with T1, Human HDAC6 (Homo sapiens, UniProt Q9UBN7).
T1 sequence (Q9UBN7 1-1215): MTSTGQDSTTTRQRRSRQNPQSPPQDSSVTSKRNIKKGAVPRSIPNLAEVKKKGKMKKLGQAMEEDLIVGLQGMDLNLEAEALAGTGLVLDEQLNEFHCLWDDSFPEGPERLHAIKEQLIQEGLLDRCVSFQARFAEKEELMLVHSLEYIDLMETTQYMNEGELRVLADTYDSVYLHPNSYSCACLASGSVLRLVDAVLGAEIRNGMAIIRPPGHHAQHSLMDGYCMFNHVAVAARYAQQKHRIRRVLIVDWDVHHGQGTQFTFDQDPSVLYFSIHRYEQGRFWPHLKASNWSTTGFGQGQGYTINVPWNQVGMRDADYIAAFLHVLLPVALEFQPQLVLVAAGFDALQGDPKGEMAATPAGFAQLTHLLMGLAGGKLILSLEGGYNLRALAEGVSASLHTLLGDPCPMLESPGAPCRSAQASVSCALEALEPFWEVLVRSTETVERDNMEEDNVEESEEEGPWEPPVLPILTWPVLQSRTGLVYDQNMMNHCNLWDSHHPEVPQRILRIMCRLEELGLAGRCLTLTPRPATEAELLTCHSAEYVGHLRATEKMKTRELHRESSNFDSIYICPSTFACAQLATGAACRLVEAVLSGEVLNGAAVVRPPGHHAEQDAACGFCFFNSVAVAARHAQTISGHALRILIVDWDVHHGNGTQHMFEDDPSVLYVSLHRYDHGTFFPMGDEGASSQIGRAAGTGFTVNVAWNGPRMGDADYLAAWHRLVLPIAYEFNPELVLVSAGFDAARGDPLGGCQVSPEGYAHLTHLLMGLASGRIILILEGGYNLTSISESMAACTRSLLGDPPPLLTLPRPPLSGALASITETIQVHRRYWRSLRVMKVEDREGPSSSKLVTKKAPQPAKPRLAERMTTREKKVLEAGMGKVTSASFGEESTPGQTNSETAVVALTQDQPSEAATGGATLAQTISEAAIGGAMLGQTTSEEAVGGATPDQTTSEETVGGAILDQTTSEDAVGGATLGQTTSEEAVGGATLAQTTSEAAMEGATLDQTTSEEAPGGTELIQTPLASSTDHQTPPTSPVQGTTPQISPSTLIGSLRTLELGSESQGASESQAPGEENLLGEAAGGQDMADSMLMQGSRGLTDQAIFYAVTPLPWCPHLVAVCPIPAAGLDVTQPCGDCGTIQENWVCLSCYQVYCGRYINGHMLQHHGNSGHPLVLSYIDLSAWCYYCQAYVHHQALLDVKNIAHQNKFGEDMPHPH
The experiment in a line: Yonetani-Theorell analysis of the binding of ITF2357 and ITF3756 to HDAC6. The format is biochemical. To be noted: with respect to the Fluor de Lys substrate; parallel lines in Yonetani-Theorell plots.
Text: Enzymes. Human HDAC6, as a chimeric form in which the full-length protein is preceded by glutathione S-transferase (GST), was purchased from BPS Bioscience.
In this analysis, the substrate concentration (S) is maintained constant at a sub-saturating concentration, and the concentration of one inhibitor (I) is varied in the presence of different levels of the second (J). The reaction velocity at a given I and J concentration pair (vij) depends on the corresponding inhibition constants (KI and KJ) and an interaction factor γ (Equation (7)). If I and J bind to the same site on the enzyme in a mutually exclusive way, the plots of reciprocal velocity as a function of the varied inhibitor concentration, at different constant levels of the second, yield a set of parallel lines because the interaction factor γ→∞ (Equation (8)). In this case, the common slope (Equation (9)) depends on the velocity of the uninhibited reaction (vo) and the dissociation constant of the varying inhibitor (KI). The dependence of the intercepts on the concentration of the inhibitor kept constant at different levels (J) should be linear (Equation (10)). The initial velocity of the inhibited enzyme, and the inhibition constants KI and KJ can be calculated. […]
The time-course of reactions was monitored to calculate the steady-state velocity from the linear part of the curve. […]

Experiment [3] concerns the target T2, Human HDAC6 (GST-HDAC6) (Homo sapiens, UniProt Q9UBN7).
T2 sequence (Q9UBN7 1-1215): T1 sequence (Q9UBN7 1-1215)
In words: Kinetics of onset of inhibition of HDAC6, progress curves with Fluor de Lys Green substrate. To be noted: for slope factor (s): slope factor of the IC50 fit, Equation (1).
Text: (§1) Human HDAC6, as a chimeric form in which the full-length protein is preceded by glutathione S-transferase (GST), was purchased from BPS Bioscience.
The activity assay described here is based on the use of the commercially available Fluor de Lys Green substrate, which contains an acetylated lysine residue covalently bound through an amide bond to the amino group of a fluorophore, likely a rhodamine derivative. Deacetylation of the lysine residue makes the amide bond susceptible to trypsin cleavage with release of the fluorophore that is accompanied by fluorescence increase.
For activity assays in the absence of inhibitors, measured fluorescence values at different reaction times, after subtraction of the background fluorescence, were analyzed to determine the initial velocity of reactions from the initial linear part of the curve. […] If the onset and relief of inhibition were sufficiently fast, compared to the time of the assay, the steady-state velocity could be calculated from the linear part of the progress curve at long reaction times. […] Thus, we could calculate apparent values of kon (the second-order rate constant for formation of the enzyme–inhibitor complex) and koff (the first-order rate constant for dissociation of the enzyme–inhibitor complex) for a simple E + I ↔ EI equilibrium from Equation (4). From the observed rates of complex formation and dissociation, an apparent dissociation constant of the complex could be calculated (Equation (5); [31, 40]). kobs = kon^app [I] + koff (4) Ki^app = koff/kon^app (5)
The steady-state velocities were used to estimate the IC50 and cooperativity (if any) from the “slope factor” (s) by calculating the percentage residual activity as a function of inhibitor concentration, and fitting to Equation (1).
From jump-dilution assays of the type shown in Figure 1, right panels, the koff was independently calculated through Equation (2) (or from the linear part of the curves) in the presence of saturating substrate, to minimize the possibility that the inhibitor rebinds to the enzyme after dissociation (Table 1).
Aliquots of reactions were stopped at different times with TSA and subsequently developed, as described in detailed methods in Supplementary information. […] The data were fitted to Equation (2) to determine the steady-state velocity values (vs), which were used to calculate IC50 and kobs (Table 1). The initial velocity was set to the value measured in the absence of the inhibitor.

Experiment [4] has as its system HDAC6 with respect to all other isoforms, including HDAC10. More on the design: method as in PMID 36528061. To be noted: cited from earlier work.
Experiment [5] relates to zebrafish HDAC6 CD2 (zHDAC6-CD2). Also noted: method as in PMID 36528061. To be noted: cited from earlier work.
In experiment [6] the target is T2, Human HDAC6 (GST-HDAC6). In words: Jump-dilution assay, kinetics of relief of inhibition of HDAC6.
Text: as §1
From the slope of the lines and the intercepts (insets of Figure 1 E,G), one can calculate the apparent rate constants for formation of the inhibited complex and for its dissociation through Equation (4) (Table 1). Through Equation (5), the apparent dissociation constant of the EI complex could be calculated (Table 1). From jump-dilution assays of the type shown in Figure 1, right panels, the koff was independently calculated through Equation (2) (or from the linear part of the curves) in the presence of saturating substrate, to minimize the possibility that the inhibitor rebinds to the enzyme after dissociation (Table 1).
Panels (A,C,E,G): kinetics of onset of inhibition. […] Aliquots of reactions were stopped at different times with TSA and subsequently developed, as described in detailed methods in Supplementary information. […] The data were fitted to Equation (2) to determine the steady-state velocity values (vs), which were used to calculate IC50 and kobs (Table 1). The initial velocity was set to the value measured in the absence of the inhibitor. […] They were used to determine the mechanism of slow-binding inhibition, and estimates of kon, koff and Ki (Table 1). […]

Results on 5 molecules are retold here after paper PMC10452033, “The Importance of the “Time Factor” for the Evaluation of Inhibition Mechanisms: The Case of Selected HDAC6 Inhibitors” (Biology, 2023).

A word on the IC50: it is the concentration needed to halve the response being measured. As a reminder, the koff is the rate constant with which the complex falls apart. Low readings indicate slow dissociation, high ones fast dissociation. Broadly, the Ki is a measure of affinity in units of concentration, obtained from inhibition or displacement. A word on the kon: it is the second-order rate constant of association.

Consider `O=C(NNC(=O)C(F)F)c1ccc(Cn2cc(-c3ccc(NC4=NCCN4)cc3)nn2)cc1` [Compound 1a], for which, in experiment [1], the half-inhibitory concentration (IC50) was 1.58 µM.

Regarding `CCN(CC)Cc1ccc2cc(COC(=O)Nc3ccc(C(=O)NO)cc3)ccc2c1` [ITF2357, reference compound], the mechanism of inhibition entry in experiment [2] is given as “competitive inhibitor”. For the same molecule, the “time after start of reaction at which steady-state velocity was reached” value in experiment [3] (reaction started by addition of the enzyme) is “approximately 15 min”. For the same molecule, in experiment [3], the “slope factor (s)” value was determined as 1.0 ± 0.06.

With `NNC(=O)c1ccc(Cn2cc(-c3ccc(NC4=NCCN4)cc3)nn2)cc1` [Compound 1b], the 50% inhibitory concentration (IC50) in experiment [1] was 0.329 µM.

`FC(F)c1nnc(-c2ccc(Cn3cc(-c4ccc(NC5=NCCN5)cc4)nn3)cc2)o1` [Compound 1]: the IC50 in experiment [1] is 0.0077 µM. Also, the “selectivity for HDAC6 with respect to all other isoforms” value in experiment [4] is on record as “greater than 10^4”. In experiment [5], the “observed rate constant for the release from the enzyme in jump-dilution assays” value is listed as “(9.6 ± 1.1) × 10^−3 min^−1” and the “rate constant for formation of the acyl-hydrazide from Compound 1” value is given as “(6.04 ± 0.22)×10^−3 min^−1”. The molecule further had a koff in experiment [6] of 0.000108 s⁻¹. In addition, in experiment [3], the inhibition constant (Ki) stood at 0.0089 ± 0.00023 µM, the dissociation rate constant (koff) was 8.33e-05 s⁻¹ and the “slope factor (s)” value was determined as 0.96 ± 0.04. Besides, the kon in experiment [3] (read-out: kon^app) was 9330 M⁻¹ s⁻¹.

Consider “[R-(E,E)]-7-[4-(Dimethylamino)phenyl]-N-hydroxy-4,6-dimethyl-7-oxo-2,4-heptadienamide [TSA, reference compound]”, for which the apparent koff in experiment [6] (pre-incubated with 10 nM TSA for 90 min, 100-fold dilution, 25 µM Fluor-de-Lys Green) was 0.032 ± 0.008 min‐1. Besides, in experiment [3] (progress curves and jump-dilution assays), the “kinetic behaviour of onset and relief of inhibition” value was “Slow binding”.
